Measurements from US20250353848A1, “HETEROCYCLIC PAD4 INHIBITORS” (Celgene Corporation, priority 2022, published 2025).

Target: hPAD4 enzyme (Homo sapiens, UniProt Q9UM07)
Experiment: RFMS Assay 1 (rapid-fire mass spectrum PAD4 inhibition assay, BAEE substrate)
Format: biochemical
Details: 5 nM hPAD4 enzyme, 250 μM BAEE, 30 mins compound and enzyme preincubation at 37° C., 90 min enzyme/substrate reaction
Experimental: Compounds were solubilized in 100% DMSO to achieve a 10 mM compound concentration. Compound stock solutions were stored at RT. A series of dilutions were prepared in DMSO and mixed 8 times with 20 μL mixing volume. Final top concentration of compound in the assay is 50 μM. Final assay conditions were as follows: • Reaction volume: 26 μl • Assay buffer: 25 mM hepes, pH 7.5, 5 mM NaCl, 1 mM DTT, 0.2 mg/ml BSA, 0.01% CHAPS, 50 μM Calcium, and 5 μM TPEN • Final concentrations: 5 nM hPAD4 enzyme, 250 μM BAEE, and 0.5% DMSO • Total incubation time: 30 mins compound and enzyme preincubation at 37° C., 90 min enzyme/substrate reaction, 30 min reaction with phenyl glyoxal at 37° C. • Stop solution: 40 μl 5% TCA in ACN
0.13 μL of compound solution was added to 13 μL of 10 nM PAD4 in assay buffer. After 30 min 13 μl of 500 μM of BAEE was added in 25 mM hepes, pH 7.5, 5 mM NaCl, 1 mM DTT, 0.2 mg/ml BSA, 0.01% CHAPS, 50 µM Calcium, […] was added and the reaction incubated for 90 min at 37° C. The enzymatic reaction was quenched by addition of 15 μl of 6.1N TCA, 100% Final Concentration is 20%, 35 μl of 8.5 mM phenyl glyoxal (final concentration 4 mM) is then added and the reaction is incubated for 30 min at 37° C.
After 30 minutes the plates are spun down to remove all precipitate. The enzyme reaction was quenched with an equal volume of methanol containing internal standard (modified citrulline). Samples were loaded onto the Rapid Fire RF300 system (Agilent) wherein they were first sipped for 1000 ms and then directly loaded to a C18 separations cartridge using a mixture of acetonitrile containing 0.01% formic acid for 3000 ms desalting. The flow rate of the mobile phase was 1.5 ml/min. Once the samples were eluted from the cartridge, a mobile phase of acetonitrile containing 0.01% formic acid was used to move the samples into the mass spectrometer for 4000 ms at a flow rate of 1.25 ml/min/Sciex AP15500 triple quadrupole mass spectrometer (Applied Biosystems) equipped with ESI was used to analyze the peptidyl citrulline and internal standard ions.
MRM transition of product and internal standard were monitored at m/z 424.5 to 350.4 and m/z 293 to 247 respectively. The dwell time for each transition was set at 200 ms, and the ESI voltage was used at 5500 with a source temperature of 400° C. Extracted ion peaks for each transition were integrated using the Rapid Fire Integrator software. Peak area of analyte was normalized with internal standard.).

hPAD4 enzyme, sequence (Q9UM07 whole entry): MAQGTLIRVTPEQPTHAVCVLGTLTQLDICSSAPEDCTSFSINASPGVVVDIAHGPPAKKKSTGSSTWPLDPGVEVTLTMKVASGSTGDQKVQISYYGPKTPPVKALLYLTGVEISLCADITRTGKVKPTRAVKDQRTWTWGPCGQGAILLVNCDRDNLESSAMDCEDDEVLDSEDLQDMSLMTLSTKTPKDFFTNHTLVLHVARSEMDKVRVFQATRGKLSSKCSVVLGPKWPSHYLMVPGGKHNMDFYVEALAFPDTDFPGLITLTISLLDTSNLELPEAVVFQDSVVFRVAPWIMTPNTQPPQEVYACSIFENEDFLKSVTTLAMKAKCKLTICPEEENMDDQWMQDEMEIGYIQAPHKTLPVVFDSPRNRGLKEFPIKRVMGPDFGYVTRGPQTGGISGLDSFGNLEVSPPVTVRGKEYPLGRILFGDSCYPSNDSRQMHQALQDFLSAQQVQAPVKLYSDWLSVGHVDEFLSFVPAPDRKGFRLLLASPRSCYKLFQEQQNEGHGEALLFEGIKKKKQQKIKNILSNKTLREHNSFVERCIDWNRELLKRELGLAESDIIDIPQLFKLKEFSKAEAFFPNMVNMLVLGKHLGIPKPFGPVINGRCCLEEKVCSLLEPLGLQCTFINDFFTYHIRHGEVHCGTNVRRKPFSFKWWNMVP

IC50 [nM]	Structure (SMILES)
≤ 10	Cn1cc(CCOc2cccc3cc(-c4nc5cc6c(nc5n4C)CCN(C[C@H](N)CF)C6=O)n(CC4CC4)c23)cn1 [Example 51, (S)-7-(2-amino-3-fluoropropyl)-2-(1-(cyclopropylmethyl)-7-(2-(1-methyl-1H-pyrazol-4-yl)ethoxy)-1H-indol-2-yl)-3-methyl-3,5,6,7-tetrahydro-8H-imidazo[4,5-b][1,6]naphthyridin-8-one]
11 to 100	Cn1c(-c2cc3cccc(OC[C@H]4CNS(=O)(=O)C4)c3n2CC2CC2)nc2cc3c(nc21)CCN(C[C@H](N)CF)C3=O [Example 52, 7-((S)-2-amino-3-fluoropropyl)-2-(1-(cyclopropylmethyl)-7-(((R)-1,1-dioxidoisothiazolidin-4-yl)methoxy)-1H-indol-2-yl)-3-methyl-3,5,6,7-tetrahydro-8H-imidazo[4,5-b][1,6]naphthyridin-8-one]
101 to 500	CN1C[C@H](COc2cccc3cc(-c4nc5cc6c(nc5n4C)CCN(C[C@H](N)CF)C6=O)n(CC4CC4)c23)CS1(=O)=O [Example 53, 7-((S)-2-amino-3-fluoropropyl)-2-(1-(cyclopropylmethyl)-7-(((R)-2-methyl-1,1-dioxidoisothiazolidin-4-yl)methoxy)-1H-indol-2-yl)-3-methyl-3,5,6,7-tetrahydro-8H-imidazo[4,5-b][1,6]naphthyridin-8-one]
101 to 500	Cc1nnc(CCOc2cccc3cc(-c4nc5cc6c(nc5n4C)CCN(C[C@H](N)CF)C6=O)n(CC4CC4)c23)s1 [Example 55, (S)-7-(2-amino-3-fluoropropyl)-2-(1-(cyclopropylmethyl)-7-(2-(5-methyl-1,3,4-thiadiazol-2-yl)ethoxy)-1H-indol-2-yl)-3-methyl-3,5,6,7-tetrahydro-8H-imidazo[4,5-b][1,6]naphthyridin-8-one]
≤ 10	Cn1c(-c2cc3cccc(OCCc4cccnc4)c3n2CC2CC2)nc2cc3c(nc21)CCN(C[C@H](N)CF)C3=O [Example 56, (S)-7-(2-amino-3-fluoropropyl)-2-(1-(cyclopropylmethyl)-7-(2-(pyridin-3-yl)ethoxy)-1H-indol-2-yl)-3-methyl-3,5,6,7-tetrahydro-8H-imidazo[4,5-b][1,6]naphthyridin-8-one]
11 to 100	Cn1c(-c2cc3cccc(OCCc4ccncc4)c3n2CC2CC2)nc2cc3c(nc21)CCN(C[C@H](N)CF)C3=O [Example 57, (S)-7-(2-amino-3-fluoropropyl)-2-(1-(cyclopropylmethyl)-7-(2-(pyridin-4-yl)ethoxy)-1H-indol-2-yl)-3-methyl-3,5,6,7-tetrahydro-8H-imidazo[4,5-b][1,6]naphthyridin-8-one]
101 to 500	Cn1c(-c2cc3cccc(OCCc4ccccn4)c3n2CC2CC2)nc2cc3c(nc21)CCN(C[C@H](N)CF)C3=O [Example 58, (S)-7-(2-amino-3-fluoropropyl)-2-(1-(cyclopropylmethyl)-7-(2-(pyridin-2-yl)ethoxy)-1H-indol-2-yl)-3-methyl-3,5,6,7-tetrahydro-8H-imidazo[4,5-b][1,6]naphthyridin-8-one]
11 to 100	C[C@@H](Cn1ccnc1)Oc1cccc2cc(-c3nc4cc5c(nc4n3C)CCN(C[C@H](N)CF)C5=O)n(CC3CC3)c12 [Example 63, 2-(7-(((S)-1-(1H-imidazol-1-yl)propan-2-yl)oxy)-1-(cyclopropylmethyl)-1H-indol-2-yl)-7-((S)-2-amino-3-fluoropropyl)-3-methyl-3,5,6,7-tetrahydro-8H-imidazo[4,5-b][1,6]naphthyridin-8-one]
≤ 10	C[C@H](Cn1cnc(F)c1)Oc1cccc2cc(-c3nc4cc5c(nc4n3C)CCN(C[C@H](N)CF)C5=O)n(CC3CC3)c12 [Example 67, 7-((S)-2-amino-3-fluoropropyl)-2-(1-(cyclopropylmethyl)-7-(((R)-1-(4-fluoro-1H-imidazol-1-yl)propan-2-yl)oxy)-1H-indol-2-yl)-3-methyl-3,5,6,7-tetrahydro-8H-imidazo[4,5-b][1,6]naphthyridin-8-one]
101 to 500	C[C@@H](Cn1cncc1F)Oc1cccc2cc(-c3nc4cc5c(nc4n3C)CCN(C[C@H](N)CF)C5=O)n(CC3CC3)c12 [Example 68, 7-((S)-2-amino-3-fluoropropyl)-2-(1-(cyclopropylmethyl)-7-(((S)-1-(5-fluoro-1H-imidazol-1-yl)propan-2-yl)oxy)-1H-indol-2-yl)-3-methyl-3,5,6,7-tetrahydro-8H-imidazo[4,5-b][1,6]naphthyridin-8-one]
11 to 100	C[C@H](Cn1cncc1F)Oc1cccc2cc(-c3nc4cc5c(nc4n3C)CCN(C[C@H](N)CF)C5=O)n(CC3CC3)c12 [Example 69, 7-((S)-2-amino-3-fluoropropyl)-2-(1-(cyclopropylmethyl)-7-(((R)-1-(5-fluoro-1H-imidazol-1-yl)propan-2-yl)oxy)-1H-indol-2-yl)-3-methyl-3,5,6,7-tetrahydro-8H-imidazo[4,5-b][1,6]naphthyridin-8-one]
≤ 10	C[C@H](COc1cccc2cc(-c3nc4cc5c(nc4n3C)CCN(C[C@@H](C)N)C5=O)n(CC3CC3)c12)n1cnc(F)c1 [Example 81, 7-((R)-2-aminopropyl)-2-(1-(cyclopropylmethyl)-7-((R)-2-(4-fluoro-1H-imidazol-1-yl)propoxy)-1H-indol-2-yl)-3-methyl-3,5,6,7-tetrahydro-8H-imidazo[4,5-b][1,6]naphthyridin-8-one]
≤ 10	C[C@H](COc1nccc2cc(-c3nc4cc5c(nc4n3C)CCN(C[C@H](N)CF)C5=O)n(CC3CC3)c12)n1cnc(F)c1 [Example 83, 7-((S)-2-amino-3-fluoropropyl)-2-(1-(cyclopropylmethyl)-7-((R)-2-(4-fluoro-1H-imidazol-1-yl)propoxy)-1H-pyrrolo[2,3-c]pyridin-2-yl)-3-methyl-3,5,6,7-tetrahydro-8H-imidazo[4,5-b][1,6]naphthyridin-8-one]
11 to 100	C[C@@H](COc1cccc2cc(-c3nc4cc5c(nc4n3C)CCN(C[C@H](N)CF)C5=O)n(CC3CC3)c12)n1cnc(C#N)c1 [Example 87, 1-((S)-1-((2-(7-((S)-2-amino-3-fluoropropyl)-3-methyl-8-oxo-5,6,7,8-tetrahydro-3H-imidazo[4,5-b][1,6]naphthyridin-2-yl)-1-(cyclopropylmethyl)-1H-indol-7-yl)oxy)propan-2-yl)-1H-imidazole-4-carbonitrile]
101 to 500	C[C@@H](COc1cccc2cc(-c3nc4cc5c(nc4n3C)CCN(C[C@H](N)CF)C5=O)n(CC3CC3)c12)n1cncc1C#N [Example 88, 1-((S)-1-((2-(7-((S)-2-amino-3-fluoropropyl)-3-methyl-8-oxo-5,6,7,8-tetrahydro-3H-imidazo[4,5-b][1,6]naphthyridin-2-yl)-1-(cyclopropylmethyl)-1H-indol-7-yl)oxy)propan-2-yl)-1H-imidazole-5-carbonitrile]
101 to 500	Cn1c(-c2cc3cccc(OCCn4ccnc4C#N)c3n2CC2CC2)nc2cc3c(nc21)CCN(C[C@H](N)CF)C3=O [Example 89, (S)-1-(2-((2-(7-(2-amino-3-fluoropropyl)-3-methyl-8-oxo-5,6,7,8-tetrahydro-3H-imidazo[4,5-b][1,6]naphthyridin-2-yl)-1-(cyclopropylmethyl)-1H-indol-7-yl)oxy)ethyl)-1H-imidazole-2-carbonitrile]
≤ 10	[2H]c1nc([2H])n(CCOc2cccc3cc(-c4nc5cc6c(nc5n4C)CCN(C[C@H](N)CF)C6=O)n(CC4CC4)c23)c1[2H] [Example 90, (S)-2-(7-(2-(1H-imidazol-1-yl-d3)ethoxy)-1-(cyclopropylmethyl)-1H-indol-2-yl)-7-(2-amino-3-fluoropropyl)-3-methyl-3,5,6,7-tetrahydro-8H-imidazo[4,5-b][1,6]naphthyridin-8-one]

Structure (SMILES)	IC50 [nM]
C[C@@H](Cn1cnc(F)c1)Oc1cccc2cc(-c3nc4cc5c(nc4n3C)CCN(C[C@H](N)CF)C5=O)n(CC3CC3)c12 [Example 66, 7-((S)-2-amino-3-fluoropropyl)-2-(1-(cyclopropylmethyl)-7-(((S)-1-(4-fluoro-1H-imidazol-1-yl)propan-2-yl)oxy)-1H-indol-2-yl)-3-methyl-3,5,6,7-tetrahydro-8H-imidazo[4,5-b][1,6]naphthyridin-8-one]	≤ 10
C[C@@H](COc1cccc2cc(-c3nc4cc5c(nc4n3C)CCN(C[C@H](N)CF)C5=O)n(CC3CC3)c12)n1ccnc1 [Example 80, 2-(7-((S)-2-(1H-imidazol-1-yl)propoxy)-1-(cyclopropylmethyl)-1H-indol-2-yl)-7-((S)-2-amino-3-fluoropropyl)-3-methyl-3,5,6,7-tetrahydro-8H-imidazo[4,5-b][1,6]naphthyridin-8-one]	11 to 100
